Source: PMC12469503, “Exploring the Antimicrobial and Antiviral Properties of Cryptic Peptides from Human Fibrinogen” (International Journal of Molecular Sciences, 2025)
In brackets after ≈: the same amount, converted by molar mass. Where two headings read alike, the source gives them in different places. Ends that are not written are not given here.

Columns and labels:
[1] = test system: Acinetobacter baumanii ATCC 17878
Sheep Red Blood Cells [2] = test system: Sheep Red Blood Cells
Procedure: (§1) To assess the safety profile of the FIB-derived peptides, their hemolytic activity was evaluated by measuring the release of hemoglobin from sheep red blood cells after 1-h incubation with increasing peptide concentrations.
(§2) Briefly, Sheep Red Blood Cells were diluted in PBS 1× to reach a final concentration of 2%. Aliquots of diluted erythrocytes (100 μL) were added to each peptide solution (0–100 μM; 100 μL) in 96-well microtiter plates, and the mixture was incubated for 30 min under shaking (3000 rpm) at 37 °C. Following the incubation, a 3 min centrifugation at 4 °C was performed, and 50 µL of the supernatant from each sample were transferred to a 96 well plate. […] Hemolysis percentage was calculated by comparing samples to controls containing PBS (negative control) and 1% SDS (v/v) in PBS solution (positive control, inducing complete lysis). Hemolysis%=(Abs405 nm peptide−Abs405 nm negative control)/(Abs405 nm positive control−Abs405 nm negative control)×100.

[3] = test system: Pseudomonas aeruginosa PAO1; conditions: PAO1
[4] = test system: Salmonella typhimurium ATCC 14028; experiment: MIC, broth microdilution; format: cell-based; conditions: Table 1; broth microdilution, Nutrient Broth 0.5×, overnight 37 °C; minimum of three independent experiments
Procedure: MIC values were determined on Gram-positive and Gram-negative bacteria by the broth microdilution method for antimicrobial peptides previously described [33, 89] with minor modifications.
Bacterial strains were grown in Luria-Bertani (LB) medium overnight at 37 °C and then diluted in Nutrient Broth at a final concentration of ~5 × 10^5 CFU/mL per well. Twofold serial dilutions of peptides were carried out in the test wells to obtain concentrations ranging from 50 μM to 0.05 μM. Plates were incubated overnight at 37 °C.
MIC value was defined as the lowest concentration at which growth was inhibited. Three independent experiments were performed for each MIC value.

[5] = test system: Pseudomonas aeruginosa RP73 (clinical isolate)
[6] = test system: Staphylococcus aureus ATCC 6538P; conditions: for MBC: ATCC 6538; for MBC/MIC: Table 2, Staphylococcus aureus ATCC 6538P
HCoV-229E = conditions: Vero cells; for antiviral activity against HCoV-229E: co-treatment assay, from 50 μM peptide
[7] = test system: P. aeruginosa PAO1 biofilm; experiment: Antibiofilm detachment assay, confocal microscopy; conditions: peptide 20 µM on 24 h pre-formed biofilm, further 24 h, Live/Dead BacLight, three independent experiments
[8] = test system: P. aeruginosa PAO1 biofilm; experiment: Antibiofilm attachment assay, confocal microscopy; conditions: peptide 20 µM added with bacteria, stained after 4 h, Live/Dead BacLight, three independent experiments, t-test vs control
[9] = test system: Salmonella enteriditis 706 RIVM
[10] = test system: Escherichia coli ATCC 25922
[11] = test system: Enterococcus faecalis ATCC 29212
[12] = test system: Staphylococcus aureus ATCC 6538P; conditions: for MIC S. aur.: ATCC 6538
[13] = test system: Pseudomonas aeruginosa PAO1; conditions: for MBC: PAO1; for MBC/MIC: Table 2, Pseudomonas aeruginosa PAO1
[14] = format: physicochemical
Text: The six peptides were produced in the recombinant form by using a previously described strategy that exploit the frog protein onconase (ONC) as a carrier to drive the peptide to inclusion bodies. The fusion proteins were expressed in Escherichia coli strain BL21DE3, using the pET22b(+) vector and named: ONC-DCless-H6-(P)FIBα-GVV27, ONC-DCless-H6-(P)FIBα-SFR22, ONC-DCless-H6-(P)FIBβ-GVV28, ONC-DCless-H6-(P)FIBβ-NWK23, ONC-DCless-H6-(P)FIBγ-GII30, ONC-DCless-H6-(P)FIBγ-TWK25 (nucleotide and amino acid sequences are reported in Supplementary Figure S1). […] Peptides were released by hydrolysis of an acidic labile “Asp-Pro” sequence leading to recombinant peptides endowed with an additional Pro residue at the N-terminus. Thus, the recombinant forms of these peptides are herein named (P)FIBα-GVV27, (P)FIBα-SFR22, (P)FIBβ-GVV28, (P)FIBβ-NWK23, (P)FIBγ-GII30, (P)FIBγ-TWK25. Hydrolysis efficiencies of 95% were estimated for all the recombinant proteins (Supplementary Figure S3). To purify the recombinant peptides from the hydrolysis mixtures, the carrier and the uncleaved fusion protein were selectively precipitated by increasing the pH to 7 exploiting the fact that ONC is insoluble at pH higher than 5, whereas most AMPs are soluble also at neutral pH. […] Therefore, purification of (P)FIBα-SFR22, (P)FIBα-GVV27, (P)FIBβ-NWK23 and (P)FIBγ-TWK25 was first performed by selective precipitation, to remove the carrier and the uncleaved fusion protein, followed by Reverse Phase High-Performance Liquid Chromatography (RP-HPLC) on a C18 column, whereas purification of (P)FIBβ-GVV28 and (P)FIBγ-GII30 was performed directly by RP-HPLC omitting the selective precipitation step. Final yields of all recombinant peptides ranged from approximately 6 to 12 mg per liter of LB culture. Peptide purity, as determined by RP-HPLC, typically varied between 95% and 99% (Supplementary Figure S4).
Peptides (P)FIBα-GVV27, (P)FIBα-SFR22, (P)FIBβ-NWK23 and (P)FIBγ-TWK25 were separated from the carrier and the uncleaved fusion proteins as previously described. The hydrolysis mixture was neutralized to pH 7–7.2 by adding 1 M NH3 and incubated for 1 h at 25 °C under nitrogen atmosphere in a water bath. […] Supernatant and insoluble fraction were analyzed by SDS-PAGE. Concentration of the peptide into the soluble fraction was determined by spectrophotometric analyses using extinction coefficients (Supplementary Table S1) calculated by the ProtParam tool. After the selective precipitation step, purification of the peptide was performed by RP-HPLC. The linear gradients used are listed in Supplementary Table S2. Purification of (P)FIBβ-GVV28 and (P)FIBγ-GII30 was performed directly by RP-HPLC, omitting the selective precipitation step. Purified peptides were lyophilized and dissolved in deionized water. Samples were stored at −80 °C under nitrogen atmosphere. Purity of peptides was evaluated by RP-HPLC on Europa Protein 300 C18 column (5 μm, 25 × 1) using the linear gradients listed in Supplementary Table S2. The identity of the peptides was confirmed by mass spectrometry.

[15] = test system: Pseudomonas aeruginosa PA14
[16] = test system: Klebsiella pneumonia ATCC 700603; conditions: ATCC 700603
Sheep Red Blood Cells [17] = experiment: Hemolysis assay; conditions: read-out: IC50 (concentration required to induce 50% hemolysis), peptide 0.78–100 µM, 37 °C, absorbance 405 nm, 1% SDS positive control, triplicate
Procedure: as §1, §2

HSV-1 = conditions: Vero cells
P. aeruginosa PAO1 = conditions: PAO1, 16 h
Procedure: Plates were incubated 16 h at 37 °C. FIC index was calculated as follows: FICA + FICB, where FICA = MIC of drug A in combination/MIC of drug A alone, and FICB = MIC of drug B in combination/MIC of drug B alone.

[18] = test system: Staphylococcus aureus ATCC 6538P; experiment: microbe, parasite or virus in culture; conditions: ATCC6538P
[19] = test system: Staphylococcus aureus ATCC 6538P; experiment: microbe, parasite or virus in culture; conditions: ATCC6538P; remark: listed apart in the source
[20] = Table 1, broth microdilution, Nutrient Broth 0.5×, overnight 37 °C, minimum of three independent experiments
[21] = Table 1, broth microdilution, Nutrient Broth 0.5×, ~5 × 10^5 CFU/mL, overnight 37 °C, minimum of three independent experiments
[22] = Table 1, control antibiotic, twofold dilutions from 64 µg/mL
[23] = peptide 1 h before infection or 1 h after infection

| Compound | MIC A. bau. [1, 20] [µM] | release of hemoglobin at 100 µM (Sheep Red Blood Cells [2]) | MIC PAO1 [3] [µM] | MIC S. typ. [4] [µM] | MBC [6] [µM] | MBC/MIC [6] | antiviral activity against HCoV-229E (HCoV-229E) | SYTO 9 / PI signal, detachment assay [7] | fluorescence signal of SYTO 9 (live cells), attachment assay [8] | MIC S. ent. [9, 20] [µM] | MIC E. coli [10, 21] [µM] | MIC E. fae. [11, 20] [µM] | MIC S. aur. [12] [µM] | MBC [13] [µM] | MBC/MIC [13] | solubility / aggregation at pH 7 [14] | MIC PA14 [15, 20] [µM] | MIC K. pne. [16] [µM] | IC50 (Sheep Red Blood Cells [17]) [µM] | MIC RP73 ([5]; RP73 (clinical isolate)) [µM] | other results |
| --- | --- | --- | --- | --- | --- | --- | --- | --- | --- | --- | --- | --- | --- | --- | --- | --- | --- | --- | --- | --- | --- |
| H-PTWKTRWYSMKKTTMKIIPFNRLTIG [(P)FIBγ-TWK25] | 3.12 | limited release of hemoglobin | 3.12 | 3.12 | 1.56 | 1 | absence of efficacy | significantly reducing the SYTO 9 signal | significantly reduced | 3.12 | 3.12 | 3.12 | 1.56 | 3.12 | 1 | soluble at pH 7 | 3.12 | 6.25 | ~100 |  | MIC RP73 [5, 20]: 3.12 µM |
| H-PSFRGADYSLRAVRMKIRPLVTQ [(P)FIBα-SFR22] |  | limited release of hemoglobin | 12.5 | 25 | 12.5 | 1 |  |  | did not cause any reduction |  |  |  | 12.5 | 12.5 | 1 | soluble at pH 7 |  | >50 | > 100 | 6.25 | MIC A. bau. ([1]; ATCC 17878): 25 µM; MIC S. ent. [9]: >50 µM; MIC E. coli ([10]; ATCC 25922): 25 µM; MIC E. fae. ([11]; ATCC 29212): 6.25 µM; MIC PA14 ([15]; PA14): 12.5 µM; antiviral activity against HSV-1 (HSV-1; co-treatment assay, from 50 μM peptide): no significant effect |
| GIIWATWKTRWYSMKKTTMKIIPFNRLTIG [FIBγ-GII30] | 6.25 |  | 6.25 | 6.25 |  |  |  |  |  |  | 6.25 | 6.25 | 6.25 |  |  |  | 6.25 | 12.5 |  | 3.12 | FICI of peptide/tobramycin combinations (P. aeruginosa PAO1): 0.5–0.53; MIC S. ent. [9]: 12.5 µM |
| CN[C@H](CC(C)C)C(=O)N[C@H]1C(=O)N[C@@H](CC(N)=O)C(=O)N[C@H]2C(=O)N[C@H]3C(=O)N[C@H](C(=O)N[C@H](C(=O)O)c4cc(O)cc(O)c4-c4cc3ccc4O)[C@H](O)c3ccc(c(Cl)c3)Oc3cc2cc(c3O[C@@H]2O[C@H](CO)[C@@H](O)[C@H](O)[C@H]2O[C@H]2C[C@](C)(N)[C@H](O)[C@H](C)O2)Oc2ccc(cc2Cl)[C@H]1O [Vancomycin, reference compound] |  |  |  |  |  | 1 |  |  |  |  |  |  |  |  |  |  |  |  |  |  | MBC [18]: 0.5 µg/mL (≈ 0.345 µM); MIC E. fae. (antibiotics) [11, 22]: 2 µg/mL (≈ 1.38 µM); MIC S. aur. (antibiotics) [12, 22]: 0.5 µg/mL (≈ 0.345 µM); MIC [19]: 0.5 µg/mL (≈ 0.345 µM) |
| H-PGVVWMNWKGSWYSMRKMSMKIRPFFPQQ [(P)FIBβ-GVV28] |  |  | 6.25 | 12.5 | 3.12 | 1 | strong antiviral activity | significantly reducing the SYTO 9 signal | significantly reduced | 12.5 |  |  | 3.12 | 6.25 | 1 | particularly prone to aggregation and precipitation |  | 25 |  | 6.25 | MIC A. bau. ([1]; ATCC 17878): 6.25 µM; antiviral activity against HCoV-229E in cell pre-treatment and post-infection treatment (HCoV-229E; [23]): appreciable antiviral activity; MIC E. coli ([10]; ATCC 25922): 6.25 µM; MIC E. fae. ([11]; ATCC 29212): 6.25 µM; MIC PA14 ([15]; PA14): 6.25 µM; antiviral activity against HSV-1 in cell pre-treatment and post-infection treatment (HSV-1; [23]): appreciable antiviral activity |
